Measurements taken from patent US10226453B2, “3-(1H-indol-2-yl)-1H-pyrazolo[4,3-B]pyridines and therapeutic uses thereof” (Samumed, LLC, priority 2015, dated 2019).

Legend:
Type in all cases: cell-based
[1] = test system: Wnt activity (Sp5-Luc reporter, SW480 colon carcinoma cells); test: Wnt activity screening assay: Sp5-Luc reporter gene in SW480 colon carcinoma cells; conditions: Homo sapiens; for EC50: overnight incubation, 10-point curve from 10 μM
Summary of the method: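 First, hygromycin-selected SW480 Sp5-Luc reporter cells are seeded in medium with 1% fetal bovine serum and exposed overnight to compound (up to 10 μM, 0.1% DMSO). Next, luciferase signal is read by luminescence. Finally, EC50 is fitted, or percent inhibition at 10 μM is reported above 10 μM.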

[2] = test system: SW480 colon cancer cells; test: Cell viability assay (CellTiter-Blue), SW480 colon cancer cells; conditions: Homo sapiens, 96 h, four days; for EC50: CellTiter-Blue; for inhibition at 10 µM: given where EC50 >10 μM, read-out: percent inhibition at 10 μM
Summary of the method: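 SW480 cells (~2×10^3/well) exposed four days at 37 °C to 8-point 1:3 dilutions, 10 μM down to 0.0045 μM. Viability from resazurin reduction (CellTiter-Blue, ~3 h, Ex 560/Em 590); EC50 by non-linear regression, or percent inhibition at 10 μM where EC50 exceeds 10 μM.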

[3] = test system: primary human fibroblasts derived from IPF patients (LL29 cells) treated with TGF-β1; test: Inhibition of the fibrotic process: αSMA staining in TGF-β1 treated primary human fibroblasts from IPF patients (LL29 cells); conditions: Fibroblast, 96 h, TGF-β1 20 ng/mL, 4 days; for EC50: % αSMA positive cells
Summary of the method: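 LL29 IPF-patient lung fibroblasts in 1% FBS F12 were given compounds (11-point, 10 μM to […], 0.1% DMSO) plus TGF-β1 20 ng/mL for 4 days at 37 °C. αSMA-positive fraction of live (SYTOX-negative) cells was imaged and normalized to TGF-β1/DMSO wells. EC50 by non-linear regression, or % inhibition at 10 μM if >10 μM.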

[4] = given where EC50 >10 μM, 10 μM, read-out: percent inhibition at 10 μM

EC50 [1]	EC50 [2]	SMILES	EC50 [3]	inhibition at 10 µM [2]	inhibition at 10 µM [1, 4]	inhibition at 10 µM [3, 4]
0.432 µM	1.18 µM	FC1(F)CCN(Cc2cncc(-c3ccc4[nH]nc(-c5cc6c(-c7ccccn7)cccc6[nH]5)c4n3)c2)C1 [Compound 166, 5-(5-((3,3-Difluoropyrrolidin-1-yl)methyl)pyridin-3-yl)-3-(4-(pyridin-2-yl)-1H-indol-2-yl)-1H-pyrazolo[4,3-b]pyridine]	0.164 µM	–	–	–
6.49 µM	> 10 µM	c1cc(-c2ccoc2)c2cc(-c3n[nH]c4ccc(-c5cncc(OC6CCCCC6)c5)nc34)[nH]c2c1 [Compound 715, 5-(5-(Cyclohexyloxy)pyridin-3-yl)-3-(4-(furan-3-yl)-1H-indol-2-yl)-1H-pyrazolo[4,3-b]pyridine]	3.94 µM	10.4%	–	–
> 10 µM	> 10 µM	Fc1ccccc1-c1cccc2[nH]c(-c3n[nH]c4ccc(-c5cncc(CNCc6ccccc6)c5)nc34)cc12 [Compound 80, N-Benzyl-1-(5-(3-(4-(2-fluorophenyl)-1H-indol-2-yl)-1H-pyrazolo[4,3-b]pyridin-5-yl)pyridin-3-yl)methanamine]	2.49 µM	18.5%	44%	–
0.067 µM	0.218 µM	Nc1cncc(-c2ccc3[nH]nc(-c4cc5c(-c6ccncc6)cccc5[nH]4)c3n2)c1 [Compound 115, 5-(3-(4-(Pyridin-4-yl)-1H-indol-2-yl)-1H-pyrazolo[4,3-b]pyridin-5-yl) pyridin-3-amine]	0.041 µM	–	–	–
1.31 µM	> 10 µM	Fc1ccc(-c2cccc3[nH]c(-c4n[nH]c5ccc(-c6cncnc6)nc45)cc23)cc1 [Compound 55, 3-(4-(4-Fluorophenyl)-1H-indol-2-yl)-5-(pyrimidin-5-yl)-1H-pyrazolo[4,3-b] pyridine]	0.89 µM	18.5%	–	–
3.64 µM	3.45 µM	c1cc(-c2ccoc2)c2cc(-c3n[nH]c4ccc(-c5cncc(CNCC6CCCC6)c5)nc34)[nH]c2c1 [Compound 333, 1-Cyclopentyl-N-((5-(3-(4-(furan-3-yl)-1H-indol-2-yl)-1H-pyrazolo[4,3-b]pyridin-5-yl)pyridin-3-yl)methyl)methanamine]	0.955 µM	–	–	–
2.39 µM	3.94 µM	c1cc(N2CCCCC2)c2cc(-c3n[nH]c4ccc(-c5cncc(OC6CCNCC6)c5)nc34)[nH]c2c1 [Compound 636, 3-(4-(Piperidin-1-yl)-1H-indol-2-yl)-5-(5-(piperidin-4-yloxy)pyridin-3-yl)-1H-pyrazolo[4,3-b]pyridine]	3.9 µM	–	–	–
2.66 µM	> 10 µM	Fc1cccc(-c2cccc3[nH]c(-c4n[nH]c5ccc(-c6cncc(OCc7ccccc7)c6)nc45)cc23)c1 [Compound 546, 5-(5-(Benzyloxy)pyridin-3-yl)-3-(4-(3-fluorophenyl)-1H-indol-2-yl)-1H-pyrazolo[4,3-b]pyridine]	1.45 µM	18.1%	–	–
0.362 µM	1.68 µM	CN(C)Cc1cncc(-c2ccc3[nH]nc(-c4cc5c(-c6ccc(F)cc6)cccc5[nH]4)c3n2)c1 [Compound 41, 1-(5-(3-(4-(4-Fluorophenyl)-1H-indol-2-yl)-1H-pyrazolo[4,3-b]pyridin-5-yl)pyridin-3-yl)-N,N-dimethylmethanamine]	0.544 µM	–	–	–
3.06 µM	> 10 µM	c1ccc(-c2ccc3[nH]nc(-c4cc5c(-c6ccncc6)cccc5[nH]4)c3n2)nc1 [Compound 140, 5-(Pyridin-2-yl)-3-(4-(pyridin-4-yl)-1H-indol-2-yl)-1H-pyrazolo[4,3-b] pyridine]	0.52 µM	33.4%	–	–
0.256 µM	0.965 µM	Nc1cncc(-c2ccc3[nH]nc(-c4cc5ncccc5[nH]4)c3n2)c1 [Compound 507, 5-(3-(1H-Pyrrolo[3,2-b]pyridin-2-yl)-1H-pyrazolo[4,3-b]pyridin-5-yl) pyridin-3-amine]	> 10 µM	–	–	24.5%
